In patent publication US20240335404A1, “SUBSTITUTED ESTERS CONTAINING POLYOLS AND SACCHARIDES FOR TREATING HEPATOTOXICITY AND FATTY LIVER DISEASES” (SINEW PHARMA INC., priority 2015, published 2024):

Legend:
[1] = target: CYP2E1 (Homo sapiens, UniProt P05181); assay: CYP2E1 inhibitory activity assay in human liver microsomes (CZX to 6-OH-CZX)
Procedure: After addition of the test sample, the amount of CYP450 isozyme metabolite standard 6-OH-CZX (6-Hydroxy-Chlorzoxazone) is specific used for calculation of the CYP450 isozyme (CYP2E1) inhibition ratio of the test sample by using the amount of 6-OH-CZX of the control group as the baseline.
All samples were tested in triplicate. To determine the percentage inhibition, each test compound was dissolved in 1, 2, 4 μg/mL to three different concentrations. The CYP2E1 activity levels in the presence of the test compounds were compared with the control incubations. The 500-μL reaction mixture, containing 0.5 mg of microsomal protein, was incubated with 320 μM CZX in the presence of 5 mM MgCl2 and 1 mM NADPH in 50 mM phosphate buffer with pH 7.4 at 37° C. for 30 min. The reaction was terminated by ice-cold acetonitrile, and then 4-hydroxyl tolbutamide was added as an internal standard. The organic phase was evaporated to dryness and reconstituted into the mobile phase (methanol:water=1:1) prior to liquid chromatography-tandem mass spectrometry (LC-MS/MS) analysis. An API 3000 triple-quadrupole mass spectrometer equipped with an ion-spray (ESI) source was used to determine 6-OH-CZX in the human liver microsomes. The ESI interface was used in the positive-ion mode. The 6-OH-CZX was monitored at a transition of m/z 284.5→185.9.
The CYP450 isozyme activity levels in the presence of the test compounds were compared with the control incubations.

[2] = Pro-drug hydrolysis in fresh human whole-blood (in vitro); format: in vitro ADME; conditions: 37° C., up to 24 hrs (FIG. 1)
Procedure: Fresh human whole-blood were used for drug hydrolysis studies. Drug (10 mg, compound F) was dissolved in 1 mL solution (20% methanol). Drug hydrolysis (n=3) was performed in 20 mL of fresh whole-blood aliquots containing 1.0 mg of drug in a 50-mL flask thermostat at 37° C. in a shaking water bath. At time 0, the drug was added, and after various times of incubation, the blood samples were collected at […], 0.75, 1, 2, 4, 6, 12 and 24 hrs. Blood sample were used 1 mL acetonitrile to quench the enzymatic hydrolysis of the drug as samples were obtained. […] The ESI interface was used in the negative-ion mode.
The pro-drug was monitored at a transition of m/z 688.9∂→180.9, Sucralose was monitored at a transition of m/z 395→359; mannitol was monitored at a transition of m/z 452.3→273.3; C6-mannitol was monitored at a transition of m/z 309→101.1. All the compounds were identified by high-resolution mass spectrophotometry and ^13C NMR. The structure of C6-mannitol (formula (2)) is as follows: […]
The hydrolysis of pro-drug in blood was expressed by plotting the percentage of Pro-drug remaining and the percentage of sucralose, mannitol and C6-mannitol increasing versus time after incubation of the pro-drug in blood (FIG. 1).

Sequence of CYP2E1 (P05181 whole entry): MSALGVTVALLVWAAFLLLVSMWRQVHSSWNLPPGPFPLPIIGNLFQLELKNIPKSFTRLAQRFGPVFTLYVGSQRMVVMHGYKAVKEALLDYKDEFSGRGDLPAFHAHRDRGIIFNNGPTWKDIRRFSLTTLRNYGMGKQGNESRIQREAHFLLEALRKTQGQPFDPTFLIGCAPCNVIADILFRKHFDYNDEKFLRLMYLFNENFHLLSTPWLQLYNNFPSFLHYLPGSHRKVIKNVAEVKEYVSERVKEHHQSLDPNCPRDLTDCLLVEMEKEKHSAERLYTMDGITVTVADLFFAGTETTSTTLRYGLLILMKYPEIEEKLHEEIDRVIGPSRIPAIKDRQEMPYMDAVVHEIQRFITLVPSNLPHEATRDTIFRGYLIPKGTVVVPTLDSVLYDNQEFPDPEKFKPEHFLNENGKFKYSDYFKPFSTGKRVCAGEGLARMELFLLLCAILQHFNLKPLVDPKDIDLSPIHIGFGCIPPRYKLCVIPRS

For `O=C(CCCCC(=O)OC[C@@H](O)[C@@H](O)[C@H](O)[C@H](O)CO)OCC1O[C@H](O[C@]2(CCl)OC(CCl)C(O)C2O)C(O)C(O)[C@H]1Cl` (stereo in doubt) [Compound F, ((2R,3R,4R,5R,6R)-6-(((2R,5R)-2,5-bis(chloromethyl)-3,4-dihydroxytetrahydrofuran-2-yl)oxy)-3-chloro-4,5-dihydroxytetrahydro-2H-pyran-2-yl)methyl ((2R,3R,4R)-2,3,4,5,6-pentahydroxyhexyl) adipate], the “P450 2E1 inhibitor activity” value [1] was “effective as P450 2E1 inhibitors”, the “CYP 2E1 inhibition ratio (%)” value ([1]; 1 μg/mL) was 17.7 ± 0.7% and the “CYP 2E1 inhibition ratio (%)” value ([1]; 2 μg/mL) was 33.3 ± 4.1%. For the same compound, the “CYP 2E1 inhibition ratio (%)” value ([1]; 4 μg/mL) was 45.7 ± 2.5% and the “percentage of pro-drug remaining and metabolites formed in blood” value [2] was “turns into its metabolites including sucralose, mannitol and C6-mannitol”.
